Results taken from patent publication US10017527B2, “KLK4 inhibitors” (Universiteit Antwerpen, priority 2014, dated 2018).
Read-outs that look alike come from different tables or passages of the source.

How the values were obtained:
Format in all cases: biochemical
KLK4 [1] = target: T1, KLK4 (Homo sapiens, UniProt Q9Y5K2); assay: KLK4 enzymatic inhibition, fluorogenic substrate Boc-Val-Pro-Arg-AMC
T1 construct: purchased Viktor Magdolen (TUM), supplied by an academic laboratory
Procedure: The substrate was obtained form Bachem and the enzyme was provided by Viktor Magdolen (TUM). The reaction was monitored with an excitation wavelength of 355 nm and emission wavelength of 460 nm. The initial rate was determined between 2500000 and 4500000 mRFU/min. The reaction mixture contained 25 μM substrate and approximately 1 mU of enzyme in 145 μL of buffer in a final volume of […]. A 50 mM Tris buffer, pH 8.3, was used. From each inhibitor concentration, 5 μL was added, obtaining a final concentration from 0 to 250 μM in a total volume of 0.2 mL. Activity measurements were routinely performed in duplicate. […] IC50 values were obtained by fitting the data with the four-parameter logistics equation using Grafit 7.
[formula] where s=slope factor, v=rate, I0=inhibitor concentration, and range=the fitted uninhibited value minus the background. The equation assumes they falls with increasing x.
(§1) Inhibitor stock solutions were prepared in DMSO and stored at −20° C. Because the compounds described in this paper completely inactivate KLK4 following pseudo first-order kinetics, the IC50 value is inversely correlated with the second-order rate constant of inactivation. For a simple pseudo first-order inactivation process, the activity after incubation with inhibitor (vi) varies with the inhibitor concentration (i), as described in the following equation: vi=v0×e^−k t, where vo is the activity in absence of inhibitor, k is the second-order rate constant of inactivation, and t is the time. The inactivation rate constant was determined from the time course of inhibition.

KLK4 [2] = target: T1, KLK4; assay: KLK4 inactivation kinetics from progress curves (kobs vs inhibitor concentration)
Procedure: as §1
The inhibitor was mixed with the substrate (250 μM final concentration), and the buffer solution with the enzyme was added at the time zero. […] The progress curves show the absorbance of aminomethylcoumarine produced as a function of time. Initially, no inhibitor is bound to the enzyme, and the tangent to the progress curve (dA/dt) is proportional to the concentration of the free enzyme. The concentration of free enzyme decreases over time due to the kinetics of inhibitor binding, as described above. Progress curves were recorded in pseudo first-order conditions ([I]0>>[E]0) and with less than 10% conversion of the substrate during the entire time course. In these conditions, dA/dt decreases exponentially with time. The progress curves were fitted with the integrated rate equation to yield a value for kobs, a pseudofirst-order rate constant At=v0[1−e^−k^obs^t]/kobs+A0 where At=absorbance at time t, A0=absorbance at time zero, and v0=uninhibited initial rate.
The apparent second-order rate constant (kapp) was calculated from the slope of the linear part of the plot of kobs versus the inhibitor concentration ([I]0). In case of competition between the inhibitor and the substrate, kapp is smaller than the “real” second order rate constant k discussed above because a certain fraction of the enzyme is present as an enzyme-substrate complex. kapp depends on the substrate concentration used in the experiment, as described by Lambeir et al. (Lambeir, Borloo et al. 1996).

KLK1 (human) = target: T2, KLK1 (human) (Homo sapiens, UniProt P06870); assay: KLK1 inhibition, fluorogenic substrate H-Pro-Phe-Arg-AMC
T2 construct: purchased Prospec
Description: (§2) The IC50 values For KLK1, KLK2 and KLK8 were obtained in a similar way. For plasmin, tPA, thrombin, Fxa, HNE, Plasma kallikrein Chromogenic substrates were used (absorption: 405 nm). (KLK2, KLK4, KLK8 were supplied by Viktor Magdolen TUMunich (TUM)).

KLK8 (human) = target: T3, KLK8 (human) (Homo sapiens, UniProt O60259); assay: KLK8 inhibition, fluorogenic substrate Boc-Val-Pro-Arg-AMC
T3 construct: purchased Viktor Magdolen, TUMunich (TUM), supplied by an academic laboratory
T3 sequence (O60259 33-260): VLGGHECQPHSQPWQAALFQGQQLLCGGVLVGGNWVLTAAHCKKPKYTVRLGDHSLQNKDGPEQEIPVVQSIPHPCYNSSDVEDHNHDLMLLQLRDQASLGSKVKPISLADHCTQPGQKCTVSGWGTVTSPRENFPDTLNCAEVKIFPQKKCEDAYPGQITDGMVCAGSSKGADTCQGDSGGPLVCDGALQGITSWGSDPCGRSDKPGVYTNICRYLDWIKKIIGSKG
Description: as §2

uPA (recombinant) = target: T4, uPA (recombinant) (Homo sapiens, UniProt P00749); assay: uPA inhibition, chromogenic substrate Biophen CS-61(44)
T4 construct: purchased Nodia

tPA (recombinant) = target: T5, tPA (recombinant) (Homo sapiens, UniProt P00750); assay: tPA inhibition, chromogenic substrate Biophen CS-05(88)
T5 construct: purchased Nodia
Description: as §2

Thrombine (human plasma) = target: T6, Thrombine (human plasma) (Homo sapiens, UniProt P00734); assay: Thrombin inhibition, chromogenic substrate Biophen CS-21(66)
T6 construct: purchased Sigma-Aldrich; host or cells: human plasma

Plasmine (human plasma) = target: T7, Plasmine (human plasma) (Homo sapiens, UniProt P00747); assay: Plasmin inhibition, chromogenic substrate Biophen CS-21(66)
T7 construct: purchased Sigma-Aldrich; host or cells: human plasma
Description: as §2

FXa = target: T8, FXa (Homo sapiens, UniProt P00742); assay: FXa inhibition, chromogenic substrate Biophen CS-11(32)
T8 construct: purchased Nodia
Description: as §2

PlasmaKLK (human plasma) = target: T9, PlasmaKLK (human plasma) (Homo sapiens, UniProt P03952); assay: Plasma kallikrein inhibition, chromogenic substrate Biophen CS-31(02)
T9 construct: purchased Sigma-Aldrich; host or cells: human plasma
Description: as §2

[3] = target: T10, Neurtophil Elastase(human) (Homo sapiens, UniProt P08246); assay: Neutrophil elastase inhibition, chromogenic substrate MeOSuc-Ala-Ala-Pro-Val-pNA
T10 construct: purchased Enzo-life sciences
T10 sequence (P08246 30-267): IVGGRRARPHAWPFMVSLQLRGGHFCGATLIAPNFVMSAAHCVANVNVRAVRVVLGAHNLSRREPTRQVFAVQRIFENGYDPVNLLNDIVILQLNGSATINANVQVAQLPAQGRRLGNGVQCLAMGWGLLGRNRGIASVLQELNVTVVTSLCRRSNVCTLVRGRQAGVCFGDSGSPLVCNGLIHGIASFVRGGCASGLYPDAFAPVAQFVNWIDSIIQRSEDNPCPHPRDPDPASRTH
Description: as §2

AcHE = AcHE (Homo sapiens, UniProt P22303); assay: AcHE inhibition
Matriptase = target: T11, Matriptase (Homo sapiens, UniProt Q9Y5Y6); assay: Matriptase inhibition
T11 sequence (Q9Y5Y6 1-855): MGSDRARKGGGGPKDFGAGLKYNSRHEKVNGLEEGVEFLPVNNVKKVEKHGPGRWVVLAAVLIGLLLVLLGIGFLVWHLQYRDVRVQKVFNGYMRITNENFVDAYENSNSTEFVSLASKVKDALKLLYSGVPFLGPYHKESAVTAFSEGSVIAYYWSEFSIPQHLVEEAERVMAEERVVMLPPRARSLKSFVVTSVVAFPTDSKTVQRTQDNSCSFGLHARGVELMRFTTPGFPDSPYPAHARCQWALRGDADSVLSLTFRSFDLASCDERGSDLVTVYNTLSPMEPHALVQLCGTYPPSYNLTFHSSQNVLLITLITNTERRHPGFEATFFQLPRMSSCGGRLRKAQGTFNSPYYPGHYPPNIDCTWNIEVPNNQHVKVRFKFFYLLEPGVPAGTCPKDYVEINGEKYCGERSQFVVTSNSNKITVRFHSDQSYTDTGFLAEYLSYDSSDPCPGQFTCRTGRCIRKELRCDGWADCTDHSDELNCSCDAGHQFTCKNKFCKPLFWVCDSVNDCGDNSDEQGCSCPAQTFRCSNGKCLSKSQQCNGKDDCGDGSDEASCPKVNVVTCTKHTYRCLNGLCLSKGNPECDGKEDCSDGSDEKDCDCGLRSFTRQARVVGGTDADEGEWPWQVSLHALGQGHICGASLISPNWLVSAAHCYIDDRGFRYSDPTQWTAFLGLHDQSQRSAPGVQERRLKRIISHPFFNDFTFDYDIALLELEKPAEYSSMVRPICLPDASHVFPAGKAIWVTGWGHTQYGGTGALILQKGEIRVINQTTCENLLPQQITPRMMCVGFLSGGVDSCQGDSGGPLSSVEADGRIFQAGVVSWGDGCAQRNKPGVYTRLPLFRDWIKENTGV

KLK2 (human) = target: T12, KLK2 (human) (Homo sapiens, UniProt P20151); assay: KLK2 inhibition, fluorogenic substrate H-Pro-Phe-Arg-AMC
T12 construct: purchased Viktor Magdolen, TUMunich (TUM), supplied by an academic laboratory
Description: as §2

[4] = 15 min pre-incubation at 37° C., Tris buffer pH 8.3, read-out: IC50 KLK4
[5] = Tris buffer pH 8.8, read-out: IC50 uPA
[6] = Tris buffer pH 8.3, read-out: IC50 tPA
[7] = Thrombin, Tris buffer pH 8.3, read-out: IC50 THR
[8] = Plasmin, Tris buffer pH 7.4, read-out: IC50 PLM
[9] = Tris buffer pH 8.3, read-out: IC50 FXa
[10] = Plasma KLK, Tris buffer pH 7.8, read-out: IC50 pKLK
[11] = Tris buffer pH 7.8, read-out: IC50 HNE

T8 sequence (P00742 235-488 limits assumed): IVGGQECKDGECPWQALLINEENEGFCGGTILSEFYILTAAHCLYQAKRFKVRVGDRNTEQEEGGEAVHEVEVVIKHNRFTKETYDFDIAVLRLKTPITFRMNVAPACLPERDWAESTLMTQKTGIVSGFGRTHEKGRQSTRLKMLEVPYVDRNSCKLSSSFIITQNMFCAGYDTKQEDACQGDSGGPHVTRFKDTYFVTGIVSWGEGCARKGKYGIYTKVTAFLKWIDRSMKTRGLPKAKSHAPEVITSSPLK
T8 sequence (P00742 41-179 partner limits assumed): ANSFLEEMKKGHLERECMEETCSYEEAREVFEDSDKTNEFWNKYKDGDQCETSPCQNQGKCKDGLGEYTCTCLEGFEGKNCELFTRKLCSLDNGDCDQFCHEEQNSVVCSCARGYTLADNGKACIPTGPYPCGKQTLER
T7 sequence (P00747 581-810 limits assumed): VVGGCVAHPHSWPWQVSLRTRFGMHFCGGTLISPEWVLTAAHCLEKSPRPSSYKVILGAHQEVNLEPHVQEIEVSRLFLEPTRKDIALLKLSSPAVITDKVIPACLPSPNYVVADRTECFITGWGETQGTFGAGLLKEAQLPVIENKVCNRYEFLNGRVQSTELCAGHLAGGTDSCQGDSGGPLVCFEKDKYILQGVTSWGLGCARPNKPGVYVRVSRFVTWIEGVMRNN
T7 sequence (P00747 98-580 partner limits assumed): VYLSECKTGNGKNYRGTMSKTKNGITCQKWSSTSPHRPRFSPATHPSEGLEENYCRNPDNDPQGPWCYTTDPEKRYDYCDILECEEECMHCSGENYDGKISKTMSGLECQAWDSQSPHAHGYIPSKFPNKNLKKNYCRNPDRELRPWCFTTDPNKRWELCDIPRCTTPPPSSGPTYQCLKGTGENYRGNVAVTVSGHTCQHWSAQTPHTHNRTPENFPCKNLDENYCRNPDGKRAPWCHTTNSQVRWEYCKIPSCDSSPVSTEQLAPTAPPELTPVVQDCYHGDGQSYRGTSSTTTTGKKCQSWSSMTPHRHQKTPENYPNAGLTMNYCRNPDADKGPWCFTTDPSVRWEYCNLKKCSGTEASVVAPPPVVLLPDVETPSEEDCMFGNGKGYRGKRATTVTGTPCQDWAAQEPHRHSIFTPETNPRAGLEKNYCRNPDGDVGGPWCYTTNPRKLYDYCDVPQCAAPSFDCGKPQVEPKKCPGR
T1 sequence (Q9Y5K2 31-254): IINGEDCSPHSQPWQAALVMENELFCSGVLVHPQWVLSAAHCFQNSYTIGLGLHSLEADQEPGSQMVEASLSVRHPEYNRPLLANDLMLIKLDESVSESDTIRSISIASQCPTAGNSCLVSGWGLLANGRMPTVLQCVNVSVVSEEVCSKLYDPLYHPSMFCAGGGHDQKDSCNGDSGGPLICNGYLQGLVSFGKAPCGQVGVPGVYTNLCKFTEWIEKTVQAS
T5 sequence (P00750 36-562, species assumed): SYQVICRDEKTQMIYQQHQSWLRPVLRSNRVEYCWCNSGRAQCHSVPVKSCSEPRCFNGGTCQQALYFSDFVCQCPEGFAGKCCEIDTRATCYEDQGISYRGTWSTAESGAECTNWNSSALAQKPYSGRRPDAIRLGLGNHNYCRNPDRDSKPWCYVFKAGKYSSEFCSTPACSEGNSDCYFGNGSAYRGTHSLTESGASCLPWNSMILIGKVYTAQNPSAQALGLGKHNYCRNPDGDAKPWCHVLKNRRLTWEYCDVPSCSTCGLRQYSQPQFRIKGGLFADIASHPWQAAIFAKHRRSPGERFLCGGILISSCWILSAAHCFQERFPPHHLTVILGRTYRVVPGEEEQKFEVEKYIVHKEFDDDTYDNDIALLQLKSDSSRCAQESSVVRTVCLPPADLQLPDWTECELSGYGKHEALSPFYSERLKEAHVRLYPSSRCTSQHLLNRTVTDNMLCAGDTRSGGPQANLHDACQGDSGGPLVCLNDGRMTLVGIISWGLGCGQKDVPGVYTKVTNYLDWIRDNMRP
T2 sequence (P06870 25-262): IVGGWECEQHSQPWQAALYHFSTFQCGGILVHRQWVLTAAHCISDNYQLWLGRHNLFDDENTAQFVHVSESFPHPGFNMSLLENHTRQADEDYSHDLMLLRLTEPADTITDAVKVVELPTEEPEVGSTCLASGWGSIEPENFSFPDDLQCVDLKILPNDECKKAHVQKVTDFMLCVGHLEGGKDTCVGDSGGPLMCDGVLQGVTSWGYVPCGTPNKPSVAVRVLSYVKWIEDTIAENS
AcHE, sequence (P22303 32-614): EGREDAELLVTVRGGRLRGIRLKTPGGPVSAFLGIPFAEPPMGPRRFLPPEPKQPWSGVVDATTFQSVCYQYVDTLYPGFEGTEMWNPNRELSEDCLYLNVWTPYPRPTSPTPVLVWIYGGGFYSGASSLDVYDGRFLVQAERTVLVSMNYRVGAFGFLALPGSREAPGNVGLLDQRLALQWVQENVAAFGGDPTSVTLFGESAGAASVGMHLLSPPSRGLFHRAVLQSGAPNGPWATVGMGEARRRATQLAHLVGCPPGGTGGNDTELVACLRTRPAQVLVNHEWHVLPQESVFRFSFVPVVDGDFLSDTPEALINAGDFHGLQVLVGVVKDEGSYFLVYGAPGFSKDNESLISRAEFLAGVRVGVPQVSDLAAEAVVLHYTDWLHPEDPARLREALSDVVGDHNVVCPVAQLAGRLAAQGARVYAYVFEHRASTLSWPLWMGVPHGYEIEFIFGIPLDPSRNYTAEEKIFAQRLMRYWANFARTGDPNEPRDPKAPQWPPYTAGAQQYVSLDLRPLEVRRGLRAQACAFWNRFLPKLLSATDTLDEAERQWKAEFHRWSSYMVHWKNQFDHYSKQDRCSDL
T9 sequence (P03952 391-638 limits assumed): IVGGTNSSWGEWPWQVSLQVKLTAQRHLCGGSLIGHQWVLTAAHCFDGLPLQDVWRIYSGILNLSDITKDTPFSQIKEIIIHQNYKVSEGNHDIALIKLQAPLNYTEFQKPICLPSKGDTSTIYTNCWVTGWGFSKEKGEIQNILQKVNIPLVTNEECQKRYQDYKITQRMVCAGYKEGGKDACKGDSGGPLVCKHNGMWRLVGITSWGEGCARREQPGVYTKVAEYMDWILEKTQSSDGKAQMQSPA
T9 sequence (P03952 20-390 partner limits assumed): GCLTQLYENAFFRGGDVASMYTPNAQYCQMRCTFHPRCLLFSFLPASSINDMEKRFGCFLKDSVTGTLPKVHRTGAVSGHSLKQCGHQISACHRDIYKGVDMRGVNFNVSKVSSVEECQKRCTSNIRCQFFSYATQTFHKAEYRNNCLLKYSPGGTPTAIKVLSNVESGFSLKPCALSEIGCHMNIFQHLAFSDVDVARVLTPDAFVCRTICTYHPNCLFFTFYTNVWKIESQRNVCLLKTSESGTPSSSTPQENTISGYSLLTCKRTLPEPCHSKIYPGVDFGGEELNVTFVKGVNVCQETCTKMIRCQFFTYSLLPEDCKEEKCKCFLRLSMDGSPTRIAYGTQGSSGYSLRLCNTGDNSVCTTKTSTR
T12 sequence (P20151 25-261): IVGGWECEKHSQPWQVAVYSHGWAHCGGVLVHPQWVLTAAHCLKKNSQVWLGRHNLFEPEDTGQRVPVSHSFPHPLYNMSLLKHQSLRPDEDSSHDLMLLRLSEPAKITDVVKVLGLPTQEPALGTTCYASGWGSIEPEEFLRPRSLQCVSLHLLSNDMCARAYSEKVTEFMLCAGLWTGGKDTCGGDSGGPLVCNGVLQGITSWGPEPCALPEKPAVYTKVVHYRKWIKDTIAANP

Compound | IC50 (KLK4 [1]; [4]) [nM] | IC50 (uPA (recombinant); [5]) [µM] | IC50 (tPA (recombinant); [6]) [µM] | IC50 (Thrombine (human plasma); [7]) [µM] | IC50 (Plasmine (human plasma); [8]) [µM] | IC50 (FXa; [9]) [µM] | IC50 (PlasmaKLK (human plasma); [10]) [µM] | IC50 [3, 11] [µM] | IC50 (KLK4 [1]) [nM] | IC50 (KLK1 (human)) [µM] | IC50 (KLK8 (human)) [µM] | IC50 (uPA (recombinant)) [µM] | IC50 (tPA (recombinant)) [µM] | IC50 (Thrombine (human plasma)) [µM] | IC50 (Plasmine (human plasma)) [µM] | IC50 (FXa) [µM] | IC50 (PlasmaKLK (human plasma)) [µM] | IC50 [3] [µM] | IC50 (AcHE) [µM] | IC50 (Matriptase) [µM] | further results
2-((1E,3E,5Z)-5-(1-(6-((2-(4-(1-(diphenoxyphosphoryl)-1-(4-guanidinophenyl)-3-oxo-4,7,10-trioxa-2-azaundecan-11-yl)-1H-1,2,3-triazol-1-yl)ethyl)amino)-6-oxohexyl)-3,3-dimethylindolin-2-ylidene)penta-1,3-dien-1-yl)-1,3,3-trimethyl-3H-indol-1-ium [Compound 134] | 100 to 1000 | 2.5 to 10 | > 250 | 10 to 250 | 10 to 250 | 2.5 to 10 | 10 to 250 | 10 to 250 |  |  |  |  |  |  |  |  |  |  |  |  | kapp KLK4 (KLK4 [2]; apparent second-order rate constant, substrate 250 μM): 2240 M⁻¹ s⁻¹; Irreversible (KLK4) (KLK4 [2]; irreversible binding to KLK4, Yes/No): Yes/; IC50 (KLK1 (human); Tris buffer pH 7.8, read-out: IC50 KLK1): 2.5 to 10 µM; IC50 (KLK8 (human); Tris buffer pH 8, read-out: IC50 KLK8): 2.5 to 10 µM; IC50 (AcHE; read-out: IC50 AcHE): 10 to 250 µM; IC50 (Matriptase; Matriptase, read-out: IC50 MAT): 2.5 to 10 µM
COCCOC(=O)NC(c1ccc(NC(=N)N)cc1)P(=O)(Oc1ccccc1)Oc1ccccc1 (stereo not drawn) [Compound 29, 2-methoxyethyl ((diphenoxyphosphoryl)(4-guanidinophenyl)methyl)carbamate 2,2,2-trifluoroacetate] |  |  |  |  |  |  |  |  | 100 to 1000 | 10 to 250 | 10 to 250 | 10 to 250 | > 250 | > 250 | 10 to 250 | > 250 | > 250 | 2.5 to 10 | 10 to 250 | 2.5 to 10 | IC50 (KLK2 (human)): 100 to 1000 nM
CCCCCC(=O)NCCOC(=O)NC(c1ccc(NC(=N)N)cc1)P(=O)(Oc1ccccc1)Oc1ccccc1 (stereo not drawn) [Compound 31, 2-hexanamidoethyl ((diphenoxyphosphoryl)(4-guanidinophenyl)methyl) carbamate 2,2,2-trifluoroacetaat] |  |  |  |  |  |  |  |  | 100 to 1000 | 10 to 250 | 10 to 250 | 10 to 250 | > 250 | > 250 | > 250 | 10 to 250 | 10 to 250 | 10 to 250 | 10 to 250 | 2.5 to 10 | 
N=C(N)Nc1ccc(C(NC(=O)OCCOCCOCc2cn(CCOCCOCCOCCNC(=O)CN3CCN(CC(=O)O)CCN(CC(=O)O)CCN(CC(=O)O)CC3)nn2)P(=O)(Oc2ccccc2)Oc2ccccc2)cc1 (stereo not drawn) [Compound 83, 2,2′,2″-(10-(14-(4-(1-(diphenoxyphosphoryl)-1-(4-guanidinophenyl)-3-oxo-4,7,10-trioxa-2-azaundecan-11-yl)-1H-1,2,3-triazol-1-yl)-2-oxo-6,9,12-trioxa-3-azatetradecyl)-1,4,7,10-tetraazacyclododecane-1,4,7-triyl)triacetic acid] |  |  |  |  |  |  |  |  | < 100 | 2.5 to 10 |  | 2.5 to 10 | 2.5 to 10 | 10 to 250 | 10 to 250 | 10 to 250 | 10 to 250 |  | 10 to 250 | 2.5 to 10 | 
CCCCCCOC(=O)NC(c1ccc(NC(=N)N)cc1)P(=O)(Oc1ccccc1)Oc1ccccc1 (stereo not drawn) [Compound 92, Hexyl ((diphenoxyphosphoryl)(4-guanidinophenyl)methyl)carbamate] |  |  |  |  |  |  |  |  | < 100 | 1 to 2.5 | 2.5 to 10 | 2.5 to 10 | 2.5 to 10 |  | 2.5 to 10 | 2.5 to 10 | 2.5 to 10 | 2.5 to 10 | 10 to 250 |  | IC50 (KLK2 (human)): 100 to 1000 nM
CCN(CC)c1ccc2c(-c3ccccc3C(=O)N3CCN(C(=O)CCCCCCCn4cc(COCCOCCOC(=O)NC(c5ccc(NC(=N)N)cc5)P(=O)(Oc5ccccc5)Oc5ccccc5)nn4)CC3)c3ccc(=[N+](CC)CC)cc-3oc2c1 (stereo not drawn) [Compound 133, N-(6-(diethylamino)-9-(2-(4-(8-(4-(1-(diphenoxyphosphoryl)-1-(4-guanidinophenyl)-3-oxo-4,7,10-trioxa-2-azaundecan-11-yl)-1H-1,2,3-triazol-1-yl)octanoyl)piperazine-1-carbonyl)phenyl)-3H-xanthen-3-ylidene)-N-ethylethanaminium] | < 100 | 2.5 to 10 | > 250 | 10 to 250 | 10 to 250 | 2.5 to 10 | 10 to 250 | 10 to 250 |  |  |  |  |  |  |  |  |  |  |  |  | IC50 (Matriptase; Matriptase, read-out: IC50 MAT): 2.5 to 10 µM
